pIC50: −log10 of the molar value. Bounds are passed on as bounds.

human factor IXa, sequence (P00740 227-461): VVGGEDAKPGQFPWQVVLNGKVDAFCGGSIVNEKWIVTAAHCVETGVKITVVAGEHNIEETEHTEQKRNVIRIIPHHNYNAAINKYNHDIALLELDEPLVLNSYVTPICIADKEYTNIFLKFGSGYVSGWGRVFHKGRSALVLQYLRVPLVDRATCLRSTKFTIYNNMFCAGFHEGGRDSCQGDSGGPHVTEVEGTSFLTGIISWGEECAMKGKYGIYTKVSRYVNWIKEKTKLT
human factor IXa, sequence (P00740 47-191 partner): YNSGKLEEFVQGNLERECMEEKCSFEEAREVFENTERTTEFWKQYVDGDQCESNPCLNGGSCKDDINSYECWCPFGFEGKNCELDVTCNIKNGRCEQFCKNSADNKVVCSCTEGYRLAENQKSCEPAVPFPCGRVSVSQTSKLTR

The target of this assay is human factor IXa (Homo sapiens (Human), UniProt P00740). Briefly: Determination of Inhibitory Activity Against Factor IXa. In kind it is biochemical. Conditions: Factor IXa enzyme assay human; read-out: FIXa IC50. The procedure:
Inhibitory activity against factor IXa was tested using the substrate SPECTROFLUOR FIXa (american diagnostica inc.; 500 West Avenue, Stamford, Conn. 06902 USA; Pr. No. 299F) and human factor IXa (american diagnostica inc.; Pr. No. 449b). Test substances were dissolved in buffer A (50 mM α,α,α-tris(hydroxymethyl) methylamine (Tris), 100 mM NaCl, 5 mM CaCl2, 15% (v/v) ethylene glycol, pH 8.0) were mixed with factor IXa (0.1 μg/ml final concentration). The enzyme reaction was started by addition of SPECTROFLUOR FIXa (100 μM final concentration). After incubation for 60 minutes at room temperature, the reaction was stopped by the addition of 20% (v/v) acetic acid solution, and then the fluorescence value was measured (Excitation Wavelength: 355 nm, Emission Wavelength; 460 nm) in a microtiter plate reader (ARVO 1420 Multilabel Counter; PerkinElmer).
The IC50 was calculated from a dilution series of the test substance with the aid of the software, Symyx Assay Explorer (Symyx Technologies, Inc.).
The pIC50 is −log10 of the IC50, conventionally taken in molar units. On to `C[C@H]1CN(c2cccc3c(N)noc23)C[C@]1(C)NC(=O)c1c(Cl)cc(-n2cnnc2)cc1Cl` (relative stereo) [Example 7, N-((3R*,4S*)-1-(3-Aminobenzo[d]isoxazol-7-yl)-3,4-dimethylpyrrolidin-3-yl)-2,6-dichloro-4-(4H-1,2,4-triazol-4-yl)benzamide], for which the pIC50 was at least 7.00. With `Nc1noc2c(N3C[C@H](NC(=O)c4c(Cl)cc(-n5cnnc5)cc4Cl)[C@@H](O)C3)cccc12` (relative stereo) [Example 8, N-((3S*,4S*)-1-(3-Aminobenzo[d]isoxazol-7-yl)-4-hydroxypyrrolidin-3-yl)-2,6-dichloro-4-(4H-1,2,4-triazol-4-yl)benzamide] the figure was at least 7.00. For `Nc1noc2c(N3CCC(NC(=O)c4ccc(-n5cnnc5)cc4Cl)C3)cccc12` (centres unmarked) [Example 1, N-(1-(3-Aminobenzo[d]isoxazol-7-yl)pyrrolidin-3-yl)-2-chloro-4-(4H-1,2,4-triazol-4-yl)benzamide], the pIC50 was at least 7.00. Consider `CC1(NC(=O)c2c(Cl)cc(-n3cnnc3)cc2Cl)CCN(c2cccc3c(N)noc23)C1` (centres unmarked) [Example 2, N-(1-(3-Aminobenzo[d]isoxazol-7-yl)-3-methylpyrrolidin-3-yl)-2,6-dichloro-4-(4H-1,2,4-triazol-4-yl)benzamide], for which the pIC50 was at least 7.00. In the case of `Nc1nsc2c(N3CCC(NC(=O)c4c(Cl)cc(-n5cnnc5)cc4Cl)C3)cccc12` (centres unmarked) [Example 4, N-(1-(3-Aminobenzo[d]isothiazol-7-yl)pyrrolidin-3-yl)-2,6-dichloro-4-(4H-1,2,4-triazol-4-yl)benzamide], the pIC50 was 6.00 to 7.00.

As to `Nc1noc2c(N3CCC(NC(=O)c4ccc(-n5cnnc5)cc4Cl)C3)nccc12` (centres unmarked) [Example 5, N-(1-(3-Aminoisoxazolo[5,4-c]pyridin-7-yl)pyrrolidin-3-yl)-2-chloro-4-(4H-1,2,4-triazol-4-yl)benzamide], the pIC50 is at least 7.00. For the compound `Cc1cc(N2CCC(NC(=O)c3c(Cl)cc(-n4cnc(C)n4)cc3Cl)C2)c2onc(N)c2c1` (centres unmarked) [Example 6, N-(1-(3-Amino-5-methylbenzo[d]isoxazol-7-yl)pyrrolidin-3-yl)-2,6-dichloro-4-(3-methyl-1H-1,2,4-triazol-1-yl)benzamide], the negative-log IC50 (pIC50) is at least 7.00. Take `Nc1noc2c(N3CC[C@@H](NC(=O)c4ccc(-n5cnnc5)cc4Cl)C3)ccc(Cl)c12` [Example 9, (R)—N-(1-(3-Amino-4-chlorobenzo[d]isoxazol-7-yl)pyrrolidin-3-yl)-2-chloro-4-(4H-1,2,4-triazol-4-yl)benzamide]: the negative-log IC50 (pIC50) was at least 7.00. Turning to `Nc1noc2c(N3CC[C@@H](NC(=O)c4ccc(-n5cnnc5)cc4Cl)C3)cc(Cl)cc12` [Example 10, (R)—N-(1-(3-Amino-5-chlorobenzo[d]isoxazol-7-yl)pyrrolidin-3-yl)-2-chloro-4-(4H-1,2,4-triazol-4-yl)benzamide], the pIC50 is at least 7.00. As to `Cc1ncn(-c2ccc(C(=O)N[C@@H]3CCN(c4ncc(Cl)c5c(N)noc45)C3)c(Cl)c2)n1` [Example 11, (R)—N-(1-(3-Amino-4-chloroisoxazolo[5,4-c]pyridin-7-yl)pyrrolidin-3-yl)-2-chloro-4-(3-methyl-1H-1,2,4-triazol-1-yl)benzamide], the pIC50 is at least 7.00.

For the compound `Cc1cc(N2CC[C@@H](NC(=O)c3ccc(-n4cnnc4)cc3Cl)C2)c2onc(N)c2c1Cl` [Example 12, (R)—N-(1-(3-Amino-4-chloro-5-methylbenzo[d]isoxazol-7-yl)pyrrolidin-3-yl)-2-chloro-4-(4H-1,2,4-triazol-4-yl)benzamide], the pIC50 is at least 7.00. Consider `Nc1noc2c(N3CC[C@@H](NC(=O)c4ccc(-n5cnnc5)cc4Cl)C3)ccc(F)c12` [Example 13, (R)—N-(1-(3-Amino-4-fluorobenzo[d]isoxazol-7-yl)pyrrolidin-3-yl)-2-chloro-4-(4H-1,2,4-triazol-4-yl)benzamide], for which the pIC50 is 6.00 to 7.00. Take `Nc1noc2c(N3CC[C@@H](NC(=O)c4ccc(-n5cnnc5)cc4Cl)C3)cc(Cl)c(Cl)c12` [Example 14, (R)—N-(1-(3-Amino-4,5-dichlorobenzo[d]isoxazol-7-yl)pyrrolidin-3-yl)-2-chloro-4-(4H-1,2,4-triazol-4-yl)benzamide]: the pIC50 was at least 7.00.

On to `Cc1ncn(-c2ccc(C(=O)NC3(C)CCN(c4cc(Cl)cc5c(N)noc45)C3)c(Cl)c2)n1` (centres unmarked) [Example 15, N-(1-(3-Amino-5-chlorobenzo[d]isoxazol-7-yl)-3-methylpyrrolidin-3-yl)-2-chloro-4-(3-methyl-1H-1,2,4-triazol-1-yl)benzamide], for which the pIC50 is at least 7.00. On to `Nc1noc2c(N3CC[C@@H](NC(=O)c4ccc(-n5cnc(CO)n5)cc4Cl)C3)cc(Cl)cc12` [Example 16, (R)—N-(1-(3-Amino-5-chlorobenzo[d]isoxazol-7-yl)pyrrolidin-3-yl)-2-chloro-4-(3-(hydroxymethyl)-1H-1,2,4-triazol-1-yl)benzamide], for which the pIC50 is at least 7.00. `Nc1noc2c(N3CC[C@@H](NC(=O)c4ccc(-n5cnc(C6CC6)n5)cc4Cl)C3)cc(Cl)cc12` [Example 17, (R)—N-(1-(3-Amino-5-chlorobenzo[d]isoxazol-7-yl)pyrrolidin-3-yl)-2-chloro-4-(3-cyclopropyl-1H-1,2,4-triazol-1-yl)benzamide]: the negative logarithm of the IC50 (pIC50) was at least 7.00.

`Nc1noc2c(N3CC[C@@H](NC(=O)c4ccc(-n5cncn5)cc4F)C3)ccc(Cl)c12` [Example 18, (R)—N-(1-(3-Amino-4-chlorobenzo[d]isoxazol-7-yl)pyrrolidin-3-yl)-2-fluoro-4-(1H-1,2,4-triazol-1-yl)benzamide]: the pIC50 is 6.00 to 7.00. Turning to `Cc1cc(-n2cncn2)ccc1C(=O)N[C@@H]1CCN(c2ccc(Cl)c3c(N)noc23)C1` [Example 19, (R)—N-(1-(3-Amino-4-chlorobenzo[d]isoxazol-7-yl)pyrrolidin-3-yl)-2-methyl-4-(1H-1,2,4-triazol-1-yl)benzamide], the pIC50 was 6.00 to 7.00. With `Nc1noc2c(N3CC[C@@H](NC(=O)c4ccc(-c5cncnc5)cc4Cl)C3)ncc(Cl)c12` [Example 20, (R)—N-(1-(3-Amino-4-chloroisoxazolo[5,4-c]pyridin-7-yl)pyrrolidin-3-yl)-2-chloro-4-(pyrimidin-5-yl)benzamide] the figure was at least 7.00. To `COc1ncc(-c2ccc(C(=O)N[C@@H]3CCN(c4ncc(Cl)c5c(N)noc45)C3)c(Cl)c2)cn1` [Example 21, (R)—N-(1-(3-Amino-4-chloroisoxazolo[5,4-c]pyridin-7-yl)pyrrolidin-3-yl)-2-chloro-4-(2-methoxypyrimidin-5-yl)benzamide] belongs at least 7.00. Turning to `N#Cc1ncc(-c2ccc(C(=O)N[C@@H]3CCN(c4ncc(Cl)c5c(N)noc45)C3)c(Cl)c2)cn1` [Example 22, (R)—N-(1-(3-Amino-4-chloroisoxazolo[5,4-c]pyridin-7-yl)pyrrolidin-3-yl)-2-chloro-4-(2-cyanopyrimidin-5-yl)benzamide], the pIC50 is at least 7.00. Consider `Nc1noc2c(N3CC[C@@H](NC(=O)c4ccc(-n5cnc(CCO)n5)cc4Cl)C3)ccc(Cl)c12` [Example 23, (R)—N-(1-(3-Amino-4-chlorobenzo[d]isoxazol-7-yl)pyrrolidin-3-yl)-2-chloro-4-(3-(2-hydroxyethyl)-1H-1,2,4-triazol-1-yl)benzamide], for which the negative-log IC50 (pIC50) is at least 7.00.

On to `Nc1noc2c(N3CC[C@@H](NC(=O)c4ccc(-n5cncn5)cc4Cl)C3)ncc(Cl)c12` [Example 24, (R)—N-(1-(3-Amino-4-chloroisoxazolo[5,4-c]pyridin-7-yl)pyrrolidin-3-yl)-2-chloro-4-(1H-1,2,4-triazol-1-yl)benzamide], for which the pIC50 was at least 7.00. As for `Nc1noc2c(N3CC[C@@H](NC(=O)c4ccc(-c5cncc(CO)c5)cc4Cl)C3)ccc(Cl)c12` [Example 25, (R)—N-(1-(3-Amino-4-chlorobenzo[d]isoxazol-7-yl)pyrrolidin-3-yl)-2-chloro-4-(5-(hydroxymethyl)pyridin-3-yl)benzamide], the pIC50 was at least 7.00.

`Nc1noc2c(N3CC[C@@H](NC(=O)c4ccc(-n5cc(CCO)cn5)cc4Cl)C3)ccc(Cl)c12` [Example 26, (R)—N-(1-(3-Amino-4-chlorobenzo[d]isoxazol-7-yl)pyrrolidin-3-yl)-2-chloro-4-(4-(2-hydroxyethyl)-1H-pyrazol-1-yl)benzamide]: the negative-log IC50 (pIC50) was at least 7.00. Consider `Nc1noc2c(N3CC[C@@H](NC(=O)c4ccc(-n5cnc(CCO)c5)cc4Cl)C3)ncc(Cl)c12` [Example 27, (R)—N-(1-(3-Amino-4-chloroisoxazolo[5,4-c]pyridin-7-yl)pyrrolidin-3-yl)-2-chloro-4-(4-(2-hydroxyethyl)-1H-imidazol-1-yl)benzamide], for which the pIC50 is at least 7.00. Consider `Nc1noc2c(N3CC[C@@H](NC(=O)c4ccc(-n5cnnc5C(F)F)cc4Cl)C3)ncc(Cl)c12` [Example 28, (R)—N-(1-(3-Amino-4-chloroisoxazolo[5,4-c]pyridin-7-yl)pyrrolidin-3-yl)-2-chloro-4-(3-(difluoromethyl)-4H-1,2,4-triazol-4-yl)benzamide], for which the negative-log IC50 (pIC50) was at least 7.00.

For the compound `Nc1noc2c(N3CC[C@@H](NC(=O)c4ccc(-n5cnc6ccccc65)cc4Cl)C3)ncc(Cl)c12` [Example 29, (R)—N-(1-(3-Amino-4-chloroisoxazolo[5,4-c]pyridin-7-yl)pyrrolidin-3-yl)-4-(1H-benzo[d]imidazol-1-yl)-2-chlorobenzamide], the negative logarithm of the IC50 (pIC50) is at least 7.00. As to `Nc1noc2c(N3CC[C@@H](NC(=O)c4ccc(-c5ccnnc5)cc4Cl)C3)ncc(Cl)c12` [Example 30, (R)—N-(1-(3-Amino-4-chloroisoxazolo[5,4-c]pyridin-7-yl)pyrrolidin-3-yl)-2-chloro-4-(pyridazin-4-yl)benzamide], the pIC50 is at least 7.00.

For the origin of these results see patent US9969724B2, “Factor IXa inhibitors” (Merck Sharp & Dohme Corp., priority 2014, dated 2018).
